Experiments:
Viability loss (Table 4) = assay type: cell-based
[1] = biological target: ABL1 (Q252H)-nonphosphorylated (Homo sapiens (Human), UniProt P00519, Q252H); assay: KINOMEscan; assay type: binding; settings: 1 uM
ABL1-nonphosphorylated = ABL1-nonphosphorylated (Homo sapiens (Human), UniProt P00519); assay: KINOMEscan; assay type: binding; settings: 1 uM
AKT1 = AKT1 (Homo sapiens (Human), UniProt P31749); assay: KINOMEscan; assay type: binding; settings: 1 uM
BMPR1A = BMPR1A (Homo sapiens (Human), UniProt P36894); assay: KINOMEscan; assay type: binding; settings: 1 uM
BMPR1A, sequence (P36894 24-532): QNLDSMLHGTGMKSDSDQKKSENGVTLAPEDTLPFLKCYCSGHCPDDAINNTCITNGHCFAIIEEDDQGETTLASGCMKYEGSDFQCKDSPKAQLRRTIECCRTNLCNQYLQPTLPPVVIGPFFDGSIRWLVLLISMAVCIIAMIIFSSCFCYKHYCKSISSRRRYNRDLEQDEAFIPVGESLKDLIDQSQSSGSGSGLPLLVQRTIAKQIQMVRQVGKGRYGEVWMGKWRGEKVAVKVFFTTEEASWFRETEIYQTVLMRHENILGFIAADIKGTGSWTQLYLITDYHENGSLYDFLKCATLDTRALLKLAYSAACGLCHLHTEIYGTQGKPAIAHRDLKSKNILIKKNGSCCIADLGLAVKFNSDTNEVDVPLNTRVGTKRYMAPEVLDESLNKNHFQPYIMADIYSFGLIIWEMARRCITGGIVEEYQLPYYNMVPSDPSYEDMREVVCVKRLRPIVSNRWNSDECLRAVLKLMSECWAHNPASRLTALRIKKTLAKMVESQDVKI

BRAF (V600E) = BRAF (V600E) (Homo sapiens (Human), UniProt P15056, V600E); assay: KINOMEscan; assay type: binding; settings: 1 uM
CAMK1D = CAMK1D (Homo sapiens (Human), UniProt Q8IU85); assay: KINOMEscan; assay type: binding; settings: 1 uM
CAMK1G = CAMK1G (Homo sapiens (Human), UniProt Q96NX5); assay: KINOMEscan; assay type: binding; settings: 1 uM
CDK3 = CDK3 (Homo sapiens (Human), UniProt Q00526); assay: KINOMEscan; assay type: binding; settings: 1 uM
CSF1R = CSF1R (Homo sapiens (Human), UniProt P07333); assay: KINOMEscan; assay type: binding; settings: 1 uM
CSF1R, sequence (P07333 20-972): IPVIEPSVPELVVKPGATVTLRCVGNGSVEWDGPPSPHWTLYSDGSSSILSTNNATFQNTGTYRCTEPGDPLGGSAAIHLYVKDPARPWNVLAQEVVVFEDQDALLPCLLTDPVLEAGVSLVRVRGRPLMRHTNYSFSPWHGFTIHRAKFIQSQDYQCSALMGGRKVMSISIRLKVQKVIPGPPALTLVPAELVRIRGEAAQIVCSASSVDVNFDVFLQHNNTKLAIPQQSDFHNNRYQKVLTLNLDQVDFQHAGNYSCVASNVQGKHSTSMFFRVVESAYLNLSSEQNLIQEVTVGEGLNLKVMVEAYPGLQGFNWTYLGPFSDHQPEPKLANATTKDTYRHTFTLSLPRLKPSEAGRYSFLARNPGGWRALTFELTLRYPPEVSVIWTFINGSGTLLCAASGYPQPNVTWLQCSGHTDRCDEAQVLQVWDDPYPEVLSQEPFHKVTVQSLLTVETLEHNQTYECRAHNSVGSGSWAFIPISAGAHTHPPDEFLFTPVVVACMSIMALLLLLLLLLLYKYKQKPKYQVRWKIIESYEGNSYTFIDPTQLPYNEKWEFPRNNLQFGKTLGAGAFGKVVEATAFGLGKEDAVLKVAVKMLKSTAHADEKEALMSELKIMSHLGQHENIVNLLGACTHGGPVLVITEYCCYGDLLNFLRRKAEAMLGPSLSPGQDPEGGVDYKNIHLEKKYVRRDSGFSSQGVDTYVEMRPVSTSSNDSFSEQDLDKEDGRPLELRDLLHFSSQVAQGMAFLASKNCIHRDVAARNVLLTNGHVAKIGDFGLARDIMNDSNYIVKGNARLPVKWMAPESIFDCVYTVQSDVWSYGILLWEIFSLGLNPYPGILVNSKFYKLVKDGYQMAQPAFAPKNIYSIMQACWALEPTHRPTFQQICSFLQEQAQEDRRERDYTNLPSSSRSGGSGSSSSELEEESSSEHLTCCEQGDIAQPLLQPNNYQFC

DYRK1B = DYRK1B (Homo sapiens (Human), UniProt Q9Y463); assay: KINOMEscan; assay type: binding; settings: 1 uM
EGFR (G719C) = EGFR (G719C) (Homo sapiens (Human), UniProt P00533, G719C); assay: KINOMEscan; assay type: binding; settings: 1 uM
EGFR (L861Q) = EGFR (L861Q) (Homo sapiens (Human), UniProt P00533, L861Q); assay: KINOMEscan; assay type: binding; settings: 1 uM
ERN1 = ERN1 (Homo sapiens (Human), UniProt O75460); assay: KINOMEscan; assay type: binding; settings: 1 uM
FER = FER (Homo sapiens (Human), UniProt P16591); assay: KINOMEscan; assay type: binding; settings: 1 uM
FES = FES (Homo sapiens (Human), UniProt P07332); assay: KINOMEscan; assay type: binding; settings: 1 uM
FES, sequence (P07332 whole entry): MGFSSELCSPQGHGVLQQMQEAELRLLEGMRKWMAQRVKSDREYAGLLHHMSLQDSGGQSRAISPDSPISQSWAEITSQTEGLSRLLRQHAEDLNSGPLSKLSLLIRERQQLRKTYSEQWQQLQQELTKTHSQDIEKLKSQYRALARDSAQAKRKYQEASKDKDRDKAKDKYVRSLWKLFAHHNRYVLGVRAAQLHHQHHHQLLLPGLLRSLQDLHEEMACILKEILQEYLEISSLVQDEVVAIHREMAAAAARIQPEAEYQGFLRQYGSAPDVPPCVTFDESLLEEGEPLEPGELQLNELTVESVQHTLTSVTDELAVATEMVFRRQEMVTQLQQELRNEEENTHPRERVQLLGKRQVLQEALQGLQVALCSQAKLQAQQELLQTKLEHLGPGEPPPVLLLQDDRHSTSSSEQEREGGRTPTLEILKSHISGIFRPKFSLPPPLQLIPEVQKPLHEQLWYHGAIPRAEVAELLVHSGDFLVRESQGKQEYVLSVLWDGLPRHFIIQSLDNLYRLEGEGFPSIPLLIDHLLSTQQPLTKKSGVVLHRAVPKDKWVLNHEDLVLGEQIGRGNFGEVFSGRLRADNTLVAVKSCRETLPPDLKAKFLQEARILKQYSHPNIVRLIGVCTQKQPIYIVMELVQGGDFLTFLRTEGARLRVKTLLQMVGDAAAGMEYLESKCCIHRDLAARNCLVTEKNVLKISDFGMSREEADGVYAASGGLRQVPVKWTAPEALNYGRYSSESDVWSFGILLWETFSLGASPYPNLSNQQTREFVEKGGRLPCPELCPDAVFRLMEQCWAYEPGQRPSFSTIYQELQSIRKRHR

HASPIN = HASPIN (Homo sapiens (Human), UniProt Q8TF76); assay: KINOMEscan; assay type: binding; settings: 1 uM
HPK1 = HPK1 (Homo sapiens (Human), UniProt Q92918); assay: KINOMEscan; assay type: binding; settings: 1 uM
MAP3K1 = MAP3K1 (Homo sapiens (Human), UniProt Q13233); assay: KINOMEscan; assay type: binding; settings: 1 uM
MAP3K3 = MAP3K3 (Homo sapiens (Human), UniProt Q99759); assay: KINOMEscan; assay type: binding; settings: 1 uM
MAP4K4 = MAP4K4 (Homo sapiens (Human), UniProt O95819); assay: KINOMEscan; assay type: binding; settings: 1 uM
MEK6 = MEK6 (Homo sapiens (Human), UniProt P52564); assay: KINOMEscan; assay type: binding; settings: 1 uM
MKK7 = MKK7 (Homo sapiens (Human), UniProt O14733); assay: KINOMEscan; assay type: binding; settings: 1 uM
MUSK = MUSK (Homo sapiens (Human), UniProt O15146); assay: KINOMEscan; assay type: binding; settings: 1 uM
NEK2 = NEK2 (Homo sapiens (Human), UniProt P51955); assay: KINOMEscan; assay type: binding; settings: 1 uM
NEK5 = NEK5 (Homo sapiens (Human), UniProt Q6P3R8); assay: KINOMEscan; assay type: binding; settings: 1 uM
NIM1 = NIM1 (Homo sapiens (Human), UniProt Q8IY84); assay: KINOMEscan; assay type: binding; settings: 1 uM
p38-delta = p38-delta (Homo sapiens (Human), UniProt O15264); assay: KINOMEscan; assay type: binding; settings: 1 uM
PCTK1 = PCTK1 (Homo sapiens (Human), UniProt Q00536); assay: KINOMEscan; assay type: binding; settings: 1 uM
PDGFRB = PDGFRB (Homo sapiens (Human), UniProt P09619); assay: KINOMEscan; assay type: binding; settings: 1 uM
PIK3CA (E545A) = PIK3CA (E545A) (Homo sapiens (Human), UniProt P42336, E545A); assay: KINOMEscan; assay type: binding; settings: 1 uM
PIK3CA (E545A), sequence (P42336 whole entry E545A): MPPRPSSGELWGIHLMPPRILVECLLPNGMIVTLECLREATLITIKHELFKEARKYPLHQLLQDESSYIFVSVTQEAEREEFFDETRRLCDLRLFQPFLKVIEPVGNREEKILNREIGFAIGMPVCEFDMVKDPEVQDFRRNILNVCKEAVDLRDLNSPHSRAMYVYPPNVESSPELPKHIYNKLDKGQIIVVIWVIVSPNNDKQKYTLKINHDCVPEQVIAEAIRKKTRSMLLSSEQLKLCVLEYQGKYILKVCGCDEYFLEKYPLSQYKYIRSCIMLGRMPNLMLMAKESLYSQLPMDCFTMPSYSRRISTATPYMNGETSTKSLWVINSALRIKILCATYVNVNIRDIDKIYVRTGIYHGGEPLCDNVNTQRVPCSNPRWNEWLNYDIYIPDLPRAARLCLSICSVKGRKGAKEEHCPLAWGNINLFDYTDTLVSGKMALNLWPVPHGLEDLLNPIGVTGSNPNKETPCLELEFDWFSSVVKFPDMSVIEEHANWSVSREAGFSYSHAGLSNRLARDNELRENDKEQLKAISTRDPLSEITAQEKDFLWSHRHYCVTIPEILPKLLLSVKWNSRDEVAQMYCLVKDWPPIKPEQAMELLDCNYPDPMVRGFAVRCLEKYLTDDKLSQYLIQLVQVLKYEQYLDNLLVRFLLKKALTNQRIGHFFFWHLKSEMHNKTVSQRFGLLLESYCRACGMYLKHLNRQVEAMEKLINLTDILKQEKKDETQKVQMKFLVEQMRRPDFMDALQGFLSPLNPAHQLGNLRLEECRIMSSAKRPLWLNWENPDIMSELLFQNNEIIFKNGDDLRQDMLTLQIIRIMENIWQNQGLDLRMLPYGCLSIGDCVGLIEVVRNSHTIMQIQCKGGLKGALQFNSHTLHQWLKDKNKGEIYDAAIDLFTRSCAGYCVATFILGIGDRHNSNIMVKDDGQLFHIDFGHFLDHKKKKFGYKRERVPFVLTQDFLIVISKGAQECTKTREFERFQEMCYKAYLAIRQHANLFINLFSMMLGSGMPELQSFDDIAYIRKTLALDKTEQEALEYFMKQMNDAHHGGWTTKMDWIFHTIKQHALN

PIK3CA (M1043I) = PIK3CA (M1043I) (Homo sapiens (Human), UniProt P42336, M1043I); assay: KINOMEscan; assay type: binding; settings: 1 uM
PIK3CA (M1043I), sequence (P42336 whole entry M1043I): as the sequence (P42336 whole entry E545A) above, with A545E, M1043I counted along it

PIK4CB = PIK4CB (Homo sapiens (Human), UniProt Q9UBF8); assay: KINOMEscan; assay type: binding; settings: 1 uM
PIK4CB, sequence (Q9UBF8 whole entry): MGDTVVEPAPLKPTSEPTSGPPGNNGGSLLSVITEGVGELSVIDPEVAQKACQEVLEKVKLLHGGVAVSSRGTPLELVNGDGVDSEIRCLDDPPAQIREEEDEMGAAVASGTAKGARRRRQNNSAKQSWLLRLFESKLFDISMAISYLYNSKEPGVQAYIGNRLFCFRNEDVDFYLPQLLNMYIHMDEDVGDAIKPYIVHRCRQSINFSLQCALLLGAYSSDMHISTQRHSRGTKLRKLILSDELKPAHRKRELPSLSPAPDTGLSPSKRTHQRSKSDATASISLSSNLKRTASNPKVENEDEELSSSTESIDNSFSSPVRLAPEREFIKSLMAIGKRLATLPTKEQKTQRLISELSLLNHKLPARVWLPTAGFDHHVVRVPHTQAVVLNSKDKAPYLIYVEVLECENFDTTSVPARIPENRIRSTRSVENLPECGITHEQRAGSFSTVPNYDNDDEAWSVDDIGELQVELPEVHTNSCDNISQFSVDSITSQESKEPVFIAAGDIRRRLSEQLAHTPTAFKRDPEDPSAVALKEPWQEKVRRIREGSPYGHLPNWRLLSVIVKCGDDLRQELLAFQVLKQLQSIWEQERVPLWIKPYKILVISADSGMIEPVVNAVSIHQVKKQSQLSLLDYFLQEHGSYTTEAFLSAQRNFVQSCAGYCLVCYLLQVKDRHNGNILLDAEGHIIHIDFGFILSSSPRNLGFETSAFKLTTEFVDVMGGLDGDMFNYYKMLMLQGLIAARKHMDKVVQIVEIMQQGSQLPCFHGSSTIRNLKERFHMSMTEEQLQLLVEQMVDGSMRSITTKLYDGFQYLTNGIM

PIP5K1C = PIP5K1C (Homo sapiens (Human), UniProt O60331); assay: KINOMEscan; assay type: binding; settings: 1 uM
PKMYT1 = PKMYT1 (Homo sapiens (Human), UniProt Q99640); assay: KINOMEscan; assay type: binding; settings: 1 uM
PRKD2 = PRKD2 (Homo sapiens (Human), UniProt Q9BZL6); assay: KINOMEscan; assay type: binding; settings: 1 uM
PRKX = PRKX (Homo sapiens (Human), UniProt P51817); assay: KINOMEscan; assay type: binding; settings: 1 uM
ROCK1 = ROCK1 (Homo sapiens (Human), UniProt Q13464); assay: KINOMEscan; assay type: binding; settings: 1 uM
[2] = biological target: RSK4 (Kin.Dom.1-N-terminal) (Homo sapiens (Human), UniProt Q9UK32); assay: KINOMEscan; assay type: binding; settings: 1 uM
SgK110 = SgK110 (Homo sapiens (Human), UniProt P0C264); assay: KINOMEscan; assay type: binding; settings: 1 uM
SgK110, sequence (P0C264 whole entry): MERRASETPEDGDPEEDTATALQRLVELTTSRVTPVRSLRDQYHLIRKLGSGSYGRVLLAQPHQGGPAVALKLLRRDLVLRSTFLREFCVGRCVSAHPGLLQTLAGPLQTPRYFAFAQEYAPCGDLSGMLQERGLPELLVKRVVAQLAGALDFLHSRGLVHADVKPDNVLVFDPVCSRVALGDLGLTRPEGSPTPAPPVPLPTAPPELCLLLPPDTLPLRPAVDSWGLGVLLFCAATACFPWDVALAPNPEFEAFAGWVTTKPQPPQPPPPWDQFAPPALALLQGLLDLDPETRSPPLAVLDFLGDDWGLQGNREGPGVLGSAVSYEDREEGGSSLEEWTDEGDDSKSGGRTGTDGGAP

TRPM6 = TRPM6 (Homo sapiens (Human), UniProt Q9BX84); assay: KINOMEscan; assay type: binding; settings: 1 uM

AKT1, sequence (P31749 whole entry): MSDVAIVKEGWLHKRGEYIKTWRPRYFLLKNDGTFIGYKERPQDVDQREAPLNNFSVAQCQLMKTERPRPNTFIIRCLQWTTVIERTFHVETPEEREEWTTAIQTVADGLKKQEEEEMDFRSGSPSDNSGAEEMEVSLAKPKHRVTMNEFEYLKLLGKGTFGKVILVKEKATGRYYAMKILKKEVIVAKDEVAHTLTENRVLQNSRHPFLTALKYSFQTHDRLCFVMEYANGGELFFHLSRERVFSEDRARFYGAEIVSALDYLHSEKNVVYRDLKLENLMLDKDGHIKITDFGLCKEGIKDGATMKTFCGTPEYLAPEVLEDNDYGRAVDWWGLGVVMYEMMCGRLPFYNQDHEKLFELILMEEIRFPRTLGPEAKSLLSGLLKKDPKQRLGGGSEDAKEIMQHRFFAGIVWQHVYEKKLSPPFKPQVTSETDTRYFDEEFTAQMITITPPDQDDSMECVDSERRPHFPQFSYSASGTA

COc1ccc(N2C(=O)N(c3c(C)cccc3C)Cc3cnc(Nc4ccc(N5CCN(C)CC5)cc4)nc32)c(OC)c1 [HG-11-136-01]
Viability loss AC40 (Viability loss (Table 4)): 97 nM
Viability loss data mode (Viability loss (Table 4)): decreasing
KINOMEscan ABL1 (Q252H)-nonphosphorylated [1]: 0
KINOMEscan ABL1-nonphosphorylated (ABL1-nonphosphorylated): 0
KINOMEscan AKT1 (AKT1): 100
KINOMEscan BMPR1A (BMPR1A): 4.6
KINOMEscan BRAF (V600E) (BRAF (V600E)): 13
KINOMEscan CAMK1D (CAMK1D): 68
KINOMEscan CAMK1G (CAMK1G): 95
KINOMEscan CDK3 (CDK3): 100
KINOMEscan CSF1R (CSF1R): 0.35
KINOMEscan DYRK1B (DYRK1B): 60
KINOMEscan EGFR (G719C) (EGFR (G719C)): 0.1
KINOMEscan EGFR (L861Q) (EGFR (L861Q)): 0
KINOMEscan ERN1 (ERN1): 13
KINOMEscan FER (FER): 0.1
KINOMEscan FES (FES): 0
KINOMEscan HASPIN (HASPIN): 92
KINOMEscan HPK1 (HPK1): 0.95
KINOMEscan MAP3K1 (MAP3K1): 73
KINOMEscan MAP3K3 (MAP3K3): 0.1
KINOMEscan MAP4K4 (MAP4K4): 17
KINOMEscan MEK6 (MEK6): 30
KINOMEscan MKK7 (MKK7): 80
KINOMEscan MUSK (MUSK): 86
KINOMEscan NEK2 (NEK2): 75
KINOMEscan NEK5 (NEK5): 98
KINOMEscan NIM1 (NIM1): 42
KINOMEscan p38-delta (p38-delta): 100
KINOMEscan PCTK1 (PCTK1): 73
KINOMEscan PDGFRB (PDGFRB): 0
KINOMEscan PIK3CA (E545A) (PIK3CA (E545A)): 69
KINOMEscan PIK3CA (M1043I) (PIK3CA (M1043I)): 64
KINOMEscan PIK4CB (PIK4CB): 63
KINOMEscan PIP5K1C (PIP5K1C): 70
KINOMEscan PKMYT1 (PKMYT1): 42
KINOMEscan PRKD2 (PRKD2): 3.6
KINOMEscan PRKX (PRKX): 100
KINOMEscan ROCK1 (ROCK1): 81
KINOMEscan RSK4 (Kin.Dom.1-N-terminal) [2]: 39
KINOMEscan SgK110 (SgK110): 8.6
KINOMEscan TRPM6 (TRPM6): 69

— US11725011B2, “Bicyclic urea kinase inhibitors and uses thereof” (The Broad Institute, Inc., priority 2016, dated 2023)
